From patent publication US12540143B2, “Methods and compositions for targeted protein degradation” (Ranok Therapeutics (Hangzhou) Co. Ltd., priority 2019, dated 2026) come the findings set out here.

pIC50: −log10 of the molar value.

The pIC50 is the IC50 on a negative log10 scale, so that one unit is a factor of ten. Low values mean a high IC50, high ones a low IC50.

One experiment addresses ATAD2 (Homo sapiens, UniProt Q6PL18). Nature of the experiment: Bromodomain Binding Assay. The settings on record: 10 μM Compound 074, read-out: Bromodomain Binding % of Control.
The target of a further experiment is T1, SMARCA4 (Homo sapiens, UniProt P51532).
T1 construct: made in house; host or cells: T7 phage grown in E. coli host derived from BL21
Nature of the experiment: Bromodomain Binding Assay. The conditions noted are these: 10 μM Compound 074, read-out: Bromodomain Binding % of Control.

The target of the next experiment is HSP90α (Homo sapiens, UniProt P07900). Nature of the experiment: HSP90α Binding Fluorescent Polarization (FP) Assay. The settings on record: as shown in Table 1. As for the experimental part: HSP90α Binding Fluorescent Polarization (FP) Assay
A master mix was prepared with assay buffer, BSA and FITC-geldanamycin. In a 96-well plate, a serial 3-fold dilution of each compound was prepared ranging from 40 μM down until 2.0 nM. Also in a 96-well plate, recombinant HSP90α protein was diluted to 28 μg/ml. Then, in a 384-well plate, 10 μl of master mix and 5 μl of compound dilution were added per well to duplicate wells and mixed by brief shaking. Then 5 μl of diluted HSP90α protein was added per well, mixed by brief shaking, incubated at 25° C. for 30, 60 and 120 min and fluorescence was measured on an En Vision Plate Reader. Background-subtracted mP values were calculated from En Vision raw data and a four-parameter “log[inhibitor] vs. response” curve was fitted using GraphPad Prism 7.0.

A further experiment deals with ATAD2B (Homo sapiens, UniProt Q9ULI0). Nature of the experiment: Bromodomain Binding Assay. The conditions noted are these: 10 μM Compound 074, read-out: Bromodomain Binding % of Control.
A further experiment deals with T2, SMARCA2 (Homo sapiens, UniProt P51531).
T2 construct: made in house; host or cells: T7 phage grown in E. coli host derived from BL21
Nature of the experiment: Bromodomain Binding Assay. The conditions noted are these: 10 μM Compound 074, read-out: Bromodomain Binding % of Control.

The target of the next experiment is BRD9 (Homo sapiens, UniProt Q9H8M2). Nature of the experiment: Bromodomain Binding Assay. The settings on record: 10 μM Compound 074, read-out: Bromodomain Binding % of Control.
The target in another experiment is BRD3 BD2 (Homo sapiens, UniProt Q15059). Nature of the experiment: Bromodomain Binding Assay. The settings on record: 10 μM Compound 074, read-out: Bromodomain Binding % of Control.
In the next experiment the target is BRDT BD1 (Homo sapiens, UniProt Q58F21). Nature of the experiment: Bromodomain Binding Assay. The settings on record: 10 μM Compound 074, read-out: Bromodomain Binding % of Control.
Another experiment addresses BRD1 (Homo sapiens, UniProt O95696). Description: Bromodomain Binding Assay. The settings on record: 10 μM Compound 074, read-out: Bromodomain Binding % of Control.
The target of another experiment is PBRM1 BD5 (Homo sapiens, UniProt Q86U86). Description: Bromodomain Binding Assay. The settings on record: 10 μM Compound 074, read-out: Bromodomain Binding % of Control.
For a further experiment, the target named is T3, BRD4 (Homo sapiens, UniProt O60885).
T3 construct: endogenous in cells; host or cells: MV4-11
Description: BRD4 western blotting in MV4-11 cells. The experiment is classed as cell-based. Here is the method:
Cells were then collected by centrifugation, washed one time with cold PBS, supernatants aspirated and cell pellets lysed with 4° C. RIPA lysis buffer containing a protease/phosphatase inhibitor cocktail. The total protein concentrations of cell lysates were determined by BCA Protein Assay kit. Samples were normalized for equivalent protein concentrations, 5× loading buffer added and heated to 100° C. for 10 min and cooled to room temperature. 20 μl of each sample/well was loaded on a SDS-PAGE gel and electrophoresed for 20 min at 80 V, then 120 V for 1.5 hr. Gels were then electroblotted to nitrocellulose membranes using a wet-transfer method at 250 mA for 2.5 hr. Membranes were incubated with blocking buffer for 1 hr and washed 3 times with TBST for 5 min. Then membranes were incubated with anti-BRD4 (Cell Signaling Technology, #13440) and anti-beta-Actin (Cell Signaling Technology, #3700) antibodies diluted in blocking buffer per the manufacturer's recommendation at 4° C. overnight. After washing 3 times, blots were incubated with the appropriate labeled secondary antibody for 1 hr at room temperature and washed again. Images were read on a LI-COR and the optical density values of bands determined by ImageJ software. Data was analyzed using GraphPad Prism 7.0.
Background: A western blot detects proteins with antibodies after separation by electrophoresis.

A further experiment concerns the target BPTF (Homo sapiens, UniProt Q12830). Description: Bromodomain Binding Assay. The settings on record: 10 μM Compound 074, read-out: Bromodomain Binding % of Control.
In a further experiment the target is CECR2 (Homo sapiens, UniProt Q9BXF3). Description: Bromodomain Binding Assay. The conditions noted are these: 10 μM Compound 074, read-out: Bromodomain Binding % of Control.
The subject of the next experiment is HSP90 client proteins. Nature of the experiment: HSP90 Client Protein Degradation Flow Cytometry Assay (summary over all clients). The conditions noted are these: ERBB2, IGF1R, EGFR and RAF1. The experiment is classed as cell-based, human. Here is the method: MV4-11 cells were plated in a 24-well tissue culture plate at a density of 350,000 cells/450 μL/well and incubated in 37° C./5% CO2 for 1 hr. Cells were then treated with compounds at various concentrations and incubated in 37° C./5% CO2 for 24 hr. Cells were harvested, washed once, counted and 200 μL of 1% paraformaldehyde/PBS was added and incubated for 15 min at room temperature. 200 μL of 1×PBS/0.4% Triton X-100 was added and incubated for 15 min at 4° C. Cells were washed three times and resuspended in 50 μL of 1×PBS/0.2% Triton X-100. 2 μL/10^6 cells of anti-BRD4 antibody (ABCAM, #128874) was added and mixed by pipetting up and down. Cells were incubated for 30 min at room temperature in the dark, washed three times and resuspended in 50 μL of 1×PBS/0.2% Triton X-100. Goat anti-rabbit IgG H&L antibody (1:2000 dilution) was added and mixed by pipetting up and down and incubated for 30 min at room temperature in the dark. Finally, cells were washed three times and resuspended in 200 μL of PBS for flow cytometric analysis.
Similar flow cytometry experiments for ERBB2 in BT-474 human breast carcinoma cells (ATCC, #HTB-20) and IGF1R, EGFR and RAF1 in HEK-293 human embryonic kidney (ATCC, #CRL-1573) were performed using anti-ERBB2 (R&D, #FAB1129P), anti-IGF1R (Cell Signaling Technology, #9750), anti-EGFR (Cell Signaling Technology, #139690) and anti-RAF1 (ABCAM, #ab181115) antibodies.

The target in the next experiment is T4, BRWD1 BD2 (Homo sapiens, UniProt Q9NSI6).
T4 construct: made in house; host or cells: T7 phage grown in E. coli host derived from BL21
Nature of the experiment: Bromodomain Binding Assay. The settings on record: 10 μM Compound 074, read-out: Bromodomain Binding % of Control.

In another experiment the target is BAZ2B (Homo sapiens, UniProt Q9UIF8). Nature of the experiment: Bromodomain Binding Assay. The conditions noted are these: 10 μM Compound 074, read-out: Bromodomain Binding % of Control.
Another experiment has as its target T5, KAT2B (Homo sapiens, UniProt Q92831).
T5 construct: made in house; host or cells: T7 phage grown in E. coli host derived from BL21
Nature of the experiment: Bromodomain Binding Assay. The settings on record: 10 μM Compound 074, read-out: Bromodomain Binding % of Control.

Another experiment concerns the target BRDT BD2 (Homo sapiens, UniProt Q58F21). Nature of the experiment: Bromodomain Binding Assay. The settings on record: 10 μM Compound 074, read-out: Bromodomain Binding % of Control.
The target of a further experiment is T6, TAF1L BD2 (Homo sapiens, UniProt Q8IZX4).
T6 construct: made in house; host or cells: T7 phage grown in E. coli host derived from BL21
Nature of the experiment: Bromodomain Binding Assay. The conditions noted are these: 10 μM Compound 074, read-out: Bromodomain Binding % of Control.

Another experiment has as its target BRPF1 (Homo sapiens, UniProt P55201). Nature of the experiment: Bromodomain Binding Assay. The settings on record: 10 μM Compound 074, read-out: Bromodomain Binding % of Control.
For another experiment, the target named is BRD2 BD1 (Homo sapiens, UniProt P25440). Nature of the experiment: Bromodomain Binding Assay. The conditions noted are these: 10 μM Compound 074, read-out: Bromodomain Binding % of Control.
BRD2 BD1, sequence (P25440 74-180 limits assumed): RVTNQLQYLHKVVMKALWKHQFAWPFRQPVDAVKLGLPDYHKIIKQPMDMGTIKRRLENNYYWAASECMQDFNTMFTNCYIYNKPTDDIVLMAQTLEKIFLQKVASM

T6 sequence (Q8IZX4 1517-1626 limits assumed): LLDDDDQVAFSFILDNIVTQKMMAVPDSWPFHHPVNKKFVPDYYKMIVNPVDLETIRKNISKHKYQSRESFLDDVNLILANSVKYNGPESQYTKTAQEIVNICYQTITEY
BRD3 BD2, sequence (Q15059 306-415 limits assumed): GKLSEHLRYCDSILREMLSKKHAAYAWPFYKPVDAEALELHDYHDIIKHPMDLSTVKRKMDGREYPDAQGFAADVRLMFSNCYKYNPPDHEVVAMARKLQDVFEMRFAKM
ATAD2, sequence (Q6PL18 980-1092 limits assumed): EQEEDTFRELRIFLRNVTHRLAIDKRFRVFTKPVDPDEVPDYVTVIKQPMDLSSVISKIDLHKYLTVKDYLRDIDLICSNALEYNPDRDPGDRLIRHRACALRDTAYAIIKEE
CECR2, sequence (Q9BXF3 434-538 limits assumed): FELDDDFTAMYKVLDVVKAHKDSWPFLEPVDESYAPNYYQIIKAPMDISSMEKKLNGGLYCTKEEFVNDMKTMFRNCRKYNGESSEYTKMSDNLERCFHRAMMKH
BRD9, sequence (Q9H8M2 136-240 limits assumed): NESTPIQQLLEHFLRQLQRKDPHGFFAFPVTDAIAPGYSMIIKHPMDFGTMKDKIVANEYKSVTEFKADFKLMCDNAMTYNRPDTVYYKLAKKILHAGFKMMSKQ
BRD1, sequence (O95696 562-666 limits assumed): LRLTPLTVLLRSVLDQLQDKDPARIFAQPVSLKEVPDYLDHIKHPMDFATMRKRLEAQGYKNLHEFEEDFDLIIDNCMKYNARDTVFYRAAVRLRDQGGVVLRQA
T2 sequence (P51531 1378-1506 limits assumed): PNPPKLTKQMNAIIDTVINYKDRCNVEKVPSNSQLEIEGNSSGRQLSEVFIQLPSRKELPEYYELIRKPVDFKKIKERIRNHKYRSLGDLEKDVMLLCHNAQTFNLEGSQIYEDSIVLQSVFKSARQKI
T4 sequence (Q9NSI6 1313-1418 limits assumed): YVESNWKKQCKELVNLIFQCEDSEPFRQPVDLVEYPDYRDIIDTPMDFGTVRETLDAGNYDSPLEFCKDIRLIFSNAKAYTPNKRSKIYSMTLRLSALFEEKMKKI
BAZ2B, sequence (Q9UIF8 2060-2164 limits assumed): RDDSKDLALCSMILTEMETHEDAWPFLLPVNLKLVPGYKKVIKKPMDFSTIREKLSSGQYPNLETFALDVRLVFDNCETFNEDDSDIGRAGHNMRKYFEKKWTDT
T1 sequence (P51532 1453-1564 limits assumed): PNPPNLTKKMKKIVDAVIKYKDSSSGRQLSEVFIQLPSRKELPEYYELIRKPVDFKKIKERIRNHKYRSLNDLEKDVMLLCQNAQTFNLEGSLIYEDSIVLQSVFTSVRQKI
PBRM1 BD5, sequence (Q86U86 653-763 limits assumed): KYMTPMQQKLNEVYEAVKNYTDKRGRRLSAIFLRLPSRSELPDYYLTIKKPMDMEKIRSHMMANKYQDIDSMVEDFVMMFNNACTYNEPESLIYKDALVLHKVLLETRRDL
BRPF1, sequence (P55201 628-732 limits assumed): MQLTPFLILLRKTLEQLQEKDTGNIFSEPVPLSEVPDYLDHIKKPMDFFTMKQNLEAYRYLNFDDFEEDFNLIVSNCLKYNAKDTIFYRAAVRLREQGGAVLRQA
T5 sequence (Q92831 723-827 limits assumed): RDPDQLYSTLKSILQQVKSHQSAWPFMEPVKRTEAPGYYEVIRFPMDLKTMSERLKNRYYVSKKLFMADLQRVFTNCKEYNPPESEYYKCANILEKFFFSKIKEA
ATAD2B, sequence (Q9ULI0 951-1066 limits assumed): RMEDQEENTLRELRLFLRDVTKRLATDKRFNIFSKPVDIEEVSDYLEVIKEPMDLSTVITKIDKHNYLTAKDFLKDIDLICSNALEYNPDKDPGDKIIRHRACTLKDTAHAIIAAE

As for `Cc1sc2c(c1C)C(c1ccc(Cl)cc1)=N[C@@H](CC(=O)N1CCC(CN3CCN(Cc4ccc(-n5c(O)nnc5-c5cc(C(C)C)c(O)cc5O)cc4)CC3)CC1)c1nnc(C)n1-2.Cl` [Compound 74, (S)-2-(4-(4-chlorophenyl)-2,3,9-trimethyl-6H-thieno[3,2-f][1,2,4]triazolo[4,3-a][1,4]diazepin-6-yl)-1-(4-((4-(4-(3-(2,4-dihydroxy-5-isopropylphenyl)-5-hydroxy-4H-1,2,4-triazol-4-yl)benzyl)piperazin-1-yl)methyl)piperidin-1-yl)ethan-1-one hydrochloride], the remaining activity at 10 µM on ATAD2 was > 75%; at SMARCA4, > 75%; on ATAD2B, > 75%; on SMARCA2 it was > 75%; on BRD9, > 75%; at BRD3 BD2, < 10%. The remaining activity at 10 µM at BRDT BD1 was < 10%; on BRD1, > 75%; at PBRM1 BD5, > 75%; at BPTF, > 75%; at CECR2 it was > 75%; at BRWD1 BD2 it was > 75%. Further, the remaining activity at 10 µM was > 75% on BAZ2B; > 75% on KAT2B; < 10% on BRDT BD2; > 75% on TAF1L BD2; > 75% at BRPF1; < 10% on BRD2 BD1. Further, the “potency in binding to HSP90 (in words)” value on HSP90α was “moderate potency”. Further, the “BRD4 degradation by western blotting with proteasome inhibitor bortezomib (FIG. 2)” value at BRD4 (MV4-11 cells treated with both compound 074 and bortezomib) is on record as “BRD4 degradation was blocked”. Moreover, the “BRD4 degradation by western blotting (FIG. 1)” value on BRD4 (MV4-11 cells, 24 hr, 100 and 300 nM) is “BRD4 degradation was observed”. This molecule also gave a negative logarithm of the IC50 (pIC50) in the experiment with HSP90 client proteins of 5.98 to 6.47.
